The nature of series [1]: Example 2: headspace analysis of 1-butene/c/α-CD powder (GC-FID). Type of series: physicochemical. The conditions noted are these: 100 mg 1-butene/c/α-CD powder, 250 mL bottle, no water, about 1 hour. How it is done:
1-butene/c/α-CD was analyzed by adding 100 mg of the collected and dried precipitate to a 250 mL glass bottle equipped with a septum cap, taking care to ensure that no powder adheres to the walls of the bottle. After about 1 hour, 250 μL of headspace gas was removed from the bottle using a six port, two-position gas sampling valve (Valco #EC6W) interfaced directly to a gas chromatograph (GC; Hewlett Packard 5890) using a RTx-5 GC column, 30 m×0.25 mm I.D., 0.25 μm film (obtained from Restek, Inc., of Bellefonte, Pa.) and equipped with flame ionization detector (FID). […] Then 3 mL of water was injected into the bottle through the septum, and the bottle is placed on a mechanical shaker and mixed vigorously for about 1 hour. After the shaking, 250 μL of the headspace gas is removed and added to an empty 250 mL bottle equipped with a septum cap, wherein the interior of the bottle was purged with nitrogen gas. The headspace concentration of 1-butene was quantified in the second bottle using gas chromatography by removing 250 μL, of gas from the 250 mL bottle using a six port, two-position gas sampling valve (Valco #EC6W) interfaced directly to a GC column having FID detector previously calibrated with a 6-point 1-butene (99.0% pure, Scott Specialty Gases, Plumsteadville, Pa.) calibration curve.

Series [2] in a line: Example 2: 1-butene headspace release from UV-cured coating on polyethylene extrusion coated paper. The format is physicochemical. The conditions noted are these: cured 1-butene/c/α-CD coated 5 cm x 10 cm rectangle, 250 mL bottle; for Headspace concentration of 1-butene, Ave.: 50 μL water, average of six. The procedure:
A 20 mL bottle was charged with 9.8 g of UV Coating VP 10169/60 MF-2NE (obtained from Verga GmbH of Aschau am Inn, Germany) and 0.2 g of 1-butene/c/α-CD. The bottle was firmly capped and the components were mixed by shaking the bottle by hand until uniformly dispersed.
About 3 mL of the mixture was removed with a dropper dispensed on a glass pan. A rubber ink roller was used to spread the mixture on the glass and roller. Next, the roller was used to coat the mixture on the coated side of a 20 cm by 20 cm section of polyethylene extrusion coated paper (REYNOLDS® Freezer Paper, 90 microns total thickness). The roller delivered a coating nominal thickness of 0.3 microns. A razor blade was used to cut a 5 cm by 10 cm rectangle from the coated sheet. Then the coated cut rectangle was passed by hand about 10 cm beneath a medium pressure mercury arc lamp operating at 200 watts per inch (79 watts per cm). After 1.5 seconds exposure to the lamp, the cured rectangle was removed. The cured rectangle was allowed to sit on a laboratory bench overnight coating side down.
Six replicate coated rectangles were made in this fashion. Each rectangle was placed in a 250 mL serum bottle. Then the six bottles were sealed with TEFLON® faced silicone septa. The 1-butene headspace concentration was quantified using gas chromatography by removing 250 μL of gas from the sample bottle using a six port, two-position gas sampling valve interfaced directly to the GC column having FID detector.
Then 50 μL of deionized water was injected into each bottle. […] The headspace of each of the six sealed bottles was analyzed at 0.5, 1, 2, 4, 8, 24, and 96 hours after the injection of water wherein about 3 mL of the 250 mL bottle headspace volume was removed for each analysis. In each sampling, the amount of 1-butene released from the UV coated rectangles was quantified by gas chromatography against a 6-point 1-butene calibration curve having a 0.998 correlation coefficient. Table 1 and FIG. 1 illustrate the average of six replicate samples of 1-butene headspace concentration and standard deviation.

This note sets out measurements from US8414989B2, “Cyclodextrin compositions, articles, and methods” (Cellresin Technologies, LLC, priority 2011, dated 2013).

SMILES strings stand for the structures.

Take `C=CCC` [1-Butene, 1-butene]: the “Headspace concentration of 1-butene” value in series [1] and in series [2] (before water injection) was “No measurable concentration” in each case. Further, the “Headspace concentration of 1-butene, Ave.” value in series [2] (0.5 hours) is recorded as 0.46 ppm (v/v); in series [2] (1 hour), 1.5 ppm (v/v); in series [2] (2 hours), 3.0 ppm (v/v); in series [2] (4 hours), 4.9 ppm (v/v); in series [2] (8 hours), 6.0 ppm (v/v); in series [2] (24 hours) it was 7.6 ppm (v/v). Also, the “Headspace concentration of 1-butene, Ave.” value in series [2] (96 hours) is recorded as 7.8 ppm (v/v).
